Key:
Assay type in all cases: in vivo
[1] = test system: Ctenocephalides felis; assay: Ctenocephalides felis in-vitro contact test adult cat flea; details: Ctenocephalides felis; 5 μg/cm^2 (=500 g/ha), after 48 hours; read-out: efficacy (fleas dead or moribund)
Procedure, shortened: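 Efficacy (% dead or moribund) was scored 48 h after adult Ctenocephalides felis were confined in tubes coated with the acetone-applied compound (900 ppm, 5 μg/cm^2). Moribund status was judged by failure to escape a 45-50° C heating plate within 5 minutes.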

[2] = test system: Rhipicephalus sanguineus; assay: Rhipicephalus sanguineus in-vitro contact test with adult brown dog ticks; details: Rhipicephalus sanguineus; 5 μg/cm^2 (=500 g/ha), after 48 hours; read-out: efficacy (ticks dead or moribund)
Method: Rhipicephalus sanguineus—In-Vitro Contact Test with Adult Brown Dog Ticks
9 mg compound is solved in 1 ml acetone and diluted with acetone to the desired concentration. 250 μl of the test solution is filled in 25 ml glass test tubes and homogeneously distributed on the inner walls by rotation and tilting on a shaking device (2 h at 30 rpm). With a compound concentration of 900 ppm, an inner surface of 44.7 cm^2 and a homogeneous distribution, a dose of 5 μg/cm^2 is achieved.
After the solvent has evaporated, each test tube is filled with 5-10 adult brown dog ticks (Rhipicephalus sanguineus), closed with a perforated lid and incubated in a lying position at room temperature and relative humidity. After 48 hours efficacy is determined. The ticks are patted on the ground of the tubes and are incubated on a heating plate at 45-50° C. for at most 5 minutes. Immotile or uncoordinated moving ticks, which are not able to escape the heat by climbing upwards, are marked as dead or moribund.
An efficacy of 100% means all ticks are dead or moribund; 0% means no ticks are dead or moribund.

[3] = test system: Ctenocephalides felis; assay: Ctenocephalides felis oral test; details: Ctenocephalides felis, in Bos taurus, po, 48 h
Procedure, shortened: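 About 20 adult unfed fleas fed through parafilm on cattle blood containing compound (DMSO concentrate diluted in blood); blood held at 37° C., fleas at room temperature. Mortality in % scored after 2 days (100% = all killed).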

[4] = test system: Myzus persicae; assay: Myzus persicae oral test; details: 120 h
Procedure, shortened: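 Feeding test: compound diluted in water was combined with IPL41 insect medium (33%+15% sugar) under a parafilm seal. A mixed population of green peach aphids fed through the membrane. Mortality (%) was scored after 5 days.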

[5] = test system: Myzus persicae; assay: Myzus persicae spray test; details: in Brassica rapa, foliar, 120 h
Procedure, shortened: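 Percent kill was recorded 5 days after spraying. Test solutions, prepared with solvent and diluted in 1000 ppm emulsifier water, were applied to Brassica pekinensis leaf disks carrying mixed-instar green peach aphids.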

[6] = test system: Nezara viridula; assay: Nezara viridula spray test; details: in Hordeum vulgare, 96 h
Procedure, shortened: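 Barley plants infested with stink bug larvae were sprayed with compound diluted in water containing 1000 ppm emulsifier. Mortality (%) was scored after 4 days, 100% meaning all bugs killed.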

[7] = test system: Nilaparvata lugens; assay: Nilaparvata lugens spray test; details: Nilaparvata lugens, in Oryza sativa, 96 h
Procedure, shortened: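 Rice plants sprayed with compound diluted in water containing 1000 ppm emulsifier, then infested with brown planthopper. Mortality (%) scored after 4 days, 100% meaning all insects killed.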

[8] = test system: Spodoptera frugiperda; assay: Spodoptera frugiperda spray test; details: in Zea mays, 168 h
Procedure, shortened: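 Read-out: % larval mortality at day 7, where 100% means all killed and 0% none killed. Compound diluted in water with 1000 ppm emulsifier, sprayed onto Zea mays leaf sections; dried sections then infested with S. frugiperda larvae.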

[9] = test system: Tetranychus urticae; assay: Tetranychus urticae spray test OP-resistant; details: Tetranychus urticae, foliar, 144 h, French bean leaf disks, after 6 days
Method: Tetranychus urticae—Spray Test OP-Resistant
To produce a suitable preparation of active compound, 1 part by weight of active compound is mixed with the stated amount of solvents and is diluted with water, containing an emulsifier concentration of 1000 ppm, to the desired concentration. Further test concentrations are prepared by dilution with emulsifier containing water.
French bean (Phaseolus vulgaris) leaf disks infected with all instars of the two spotted spidermite (Tetranychus urticae), are sprayed with a preparation of the active ingredient of the desired concentration.
After 6 days mortality in % is determined. 100% means all spider mites have been killed and 0% means none of the spider mites have been killed.

[10] = test system: Aedes aegypti strain MONHEIM; assay: Aedes aegypti test (AEDSAE surface treatment & contact assay); details: 24 hours after contact, read-out: efficacy (mortality); for mortality at 4 mg/m2: surface concentration 4 mg/m^2, 30 minutes exposure; for mortality at 20 mg/m2: surface concentration 20 mg/m^2, 30 minutes exposure
Procedure, shortened: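 Compound dissolved in acetone (2 mg/ml) with 2000 ppm rapeseed oil methyl ester and dried onto a glazed tile. Adult mosquitoes held on the treated surface for 30 minutes exposure. Percent mortality scored 24 hours after contact.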

## CCN(C(=O)c1cc(Cl)cc(S(C)(=O)=O)c1)C(C)c1ncnn1-c1ncccn1 (stereo not shown) [Example I-040, 3-chloro-N-ethyl-5-(methylsulfonyl)-N-{1-[1-(pyrimidin-2-yl)-1H-1,2,4-triazol-5-yl]ethyl}benzamide]
[1]
  pest or weed control at 5 µg/cm2, 5 µg/cm2: 100%
[2]
  pest or weed control at 5 µg/cm2, 5 µg/cm2: 100%
[3]
  mortality at 100 ppm: 100%
[4]
  mortality at 4 ppm: 100%
[5]
  mortality at 500 g/ha: 90%
[6]
  mortality at 500 g/ha: 100%
[7]
  mortality at 500 g/ha: 100%
[8]
  mortality at 500 g/ha: 100%
[9]
  mortality at 500 g/ha: 90%
[10]
  mortality at 4 mg/m2: 80 to 100%
  mortality at 20 mg/m2: 90 to 100%

## C[C@@H](NC(=O)c1cc(Cl)cc(S(=O)(=O)C2CC2)c1)c1ncnn1-c1ncccn1 [Example I-042]
[1]
  pest or weed control at 5 µg/cm2, 5 µg/cm2: 100%
[2]
  pest or weed control at 5 µg/cm2, 5 µg/cm2: 80%
[3]
  mortality at 100 ppm: 100%
[4]
  mortality at 4 ppm: 100%
[5]
  mortality at 500 g/ha: 90%
[6]
  mortality at 500 g/ha: 100%
[7]
  mortality at 500 g/ha: 100%
[8]
  mortality at 500 g/ha: 83%
[9]
  mortality at 500 g/ha: 90%
[10]
  mortality at 4 mg/m2: 80 to 100%
  mortality at 20 mg/m2: 90 to 100%
